Structures can show the parent of a compound that is named as a salt.
What was measured:
DENV-2 strain 16681 = test: Tetravalent RT-qPCR assay, serotype 2; type: cell-based; conditions: Dengue virus, DENV2, 72 h; RT-qPCR serotype 2 16681, Protocol A, Vero cells, day 3
Protocol: (§1) The antiviral activity of the compounds of the invention was tested against DENV-1 strain TC974#666 (NCPV), DENV-2 strain 16681, DENV-3 strain H87 (NCPV) and DENV-4 strain H241 (NCPV) in a RT-qPCR assay. Therefore, Vero cells were infected with either DENV-1, or -2, or -3, or -4 in the presence or absence of test compounds. At day 3 post-infection, the cells were lysed and cell lysates were used to prepare cDNA of both a viral target (the 3′UTR of DENV; Table 2) and a cellular reference gene (β-actin, Table 2). Subsequently, a duplex real time PCR was performed on a Lightcycler480 instrument. The generated Cp value is inversely proportional to the amount of RNA expression of these targets. Inhibition of DENV replication by a test compound results in a shift of Cp's for the 3′UTR gene. On the other hand, if a test compound is toxic to the cells, a similar effect on β-actin expression will be observed. The comparative ΔΔCp method is used to calculate EC50, which is based on the relative gene expression of the target gene (3′UTR) normalized with the cellular housekeeping gene (β-actin). In addition, CC50 values are determined based on the Cp values acquired for the housekeeping gene β-actin.
(§2) The culture medium consisted of minimal essential medium supplemented with 2% of heat-inactivated fetal calf serum, 0.04% gentamycin (50 mg/mL) and 2 mM of L-glutamine. Vero cells, obtained from ECACC, were suspended in culture medium and 75 μL/well was added in 96-well plates (10000 cells/well), which already contain the antiviral compounds. […] In addition, each plate contains wells which are assigned as virus controls (containing cells and virus in the absence of compound) and cell controls (containing cells in the absence of virus and compound). Once the cells were added in the plates, the plates were incubated in a fully humidified incubator (37° C., 5% CO2) until the next day. Dengue viruses serotype-1, -2, -3 and -4 were diluted in order to obtain a Cp of ˜22-24 in the assay. Therefore, 25 μL of virus suspension was added to all the wells containing test compound and to the wells assigned as virus control. In parallel, 25 μL of culture medium was added to the cell controls. Next, the plates were incubated for 3 days in a fully humidified incubator (37° C., 5% CO2). After 3 days, the supernatant was removed from the wells and the cells were washed twice with ice-cold PBS (˜100 μL). The cell pellets within the 96-well plates were stored at −80° C. for at least 1 day. Next, RNA was extracted using the Cells-to-CT^Tm lysis kit, according to the manufacturer's guideline (Life Technologies). The cell lysates can be stored at −80° C. or immediately used in the reverse transcription step.
(§3) In preparation of the reverse transcription step, mix A (table 3A) was prepared and 7.57 μL/well was dispensed in a 96-well plate. After addition of 5 μL of the cell lysates, a five minute denaturation step at 75° C. was performed (table 3B). Afterwards, 7.43 μL of mix B was added (table 3C) and the reverse transcription step was initiated (table 3D) to generate cDNA.
(§4) Finally, a RT-qPCR mix was prepared, mix C (table 4A), and 22.02 μL/well was dispensed in 96-well LightCycler qPCR plates to which 3 μL of cDNA was added and the qPCR was performed according to the conditions in table 4B on a LightCycler 480.
(§5) Using the LightCycler software and an in-house LIMS system, dose response curves for each compound were calculated and the half maximal effective concentration (EC50) and the half maximal cytotoxic concentration (CC50) were determined (Tables 5-8).

DENV-4 strain H241 = test: Tetravalent RT-qPCR assay, serotype 4; type: cell-based; conditions: Dengue virus, DENV4, 72 h; RT-qPCR serotype 4 H241, Protocol A, Vero cells, day 3
Protocol: as §1, §2, §3, §4, §5

DENV-3 strain H87 = test: Tetravalent RT-qPCR assay, serotype 3; type: cell-based; conditions: Dengue virus, DENV3, 72 h; RT-qPCR serotype 3 H87, Protocol A, Vero cells, day 3
Protocol: as §1, §2, §3, §4, §5

Vero cells = conditions: African green monkey
DENV-2 16681 strain = test: DENV-2 antiviral assay (eGFP fluorescence); type: cell-based, Dengue virus; conditions: DENV-2 16681 eGFP, Vero cells, MOI 0.5, 3 days
Protocol: The antiviral activity of all the compounds of the invention was tested against the DENV-2 16681 strain which was labeled with enhanced green fluorescent protein (eGPF). The culture medium consists of minimal essential medium supplemented with 2% of heat-inactivated fetal calf serum, 0.04% gentamycin (50 mg/mL) and 2 mM of L-glutamine. Vero cells, obtained from ECACC, were suspended in culture medium and 25 μL was added to 384-well plates (2500 cells/well), which already contain the antiviral compounds. Typically, these plates contain a 5-fold serial dilution of 9 dilution steps of the test compound at 200 times the final concentration in 100% DMSO (200 nL). […] Finally, each plate contains wells which are assigned as virus controls (containing cells and virus in the absence of compound), cell controls (containing cells in the absence of virus and compound) and medium controls (containing medium in the absence of cells, virus and compounds). To the wells assigned as medium control, 25 μL of culture medium was added instead of Vero cells. Once the cells were added to the plates, the plates were incubated for 30 minutes at room temperature to allow the cells to distribute evenly within the wells. Next, the plates were incubated in a fully humidified incubator (37° C., 5% CO2) until the next day. Then, DENV-2 strain 16681, labeled with eGFP, was added at a multiplicity of infection (MOI) of 0.5. Therefore, 15 μL of virus suspension was added to all the wells containing test compound and to the wells assigned as virus control. In parallel, 15 μL of culture medium was added to the medium and cell controls. Next, the plates were incubated for 3 days in a fully humidified incubator (37° C., 5% CO2). At the day of the read out, the eGFP fluorescence was measured using an automated fluorescence microscope at 488 nm (blue laser). Using an in-house LIMS system, inhibition dose response curves for each compound were calculated and the half maximal effective concentration (EC50) was determined. Therefore, the percent inhibition (I) for every test concentration is calculated using the following formula: I=100*(ST-SCC)/(SVC-SCC); ST, SCC and SVC are the amount of eGFP signal in the test compound, cell control and virus control wells, respectively. The EC50, represents the concentration of a compound at which the virus replication is inhibited with 50%, as measured by a 50% reduction of the eGFP fluorescent intensity compared to the virus control. The EC50 is calculated using linear interpolation (Table 1).

DENV-1 strain TC974#666 = test: Tetravalent RT-qPCR assay, serotype 1; type: cell-based; conditions: Dengue virus, DENV1, Vero, 72 h
Protocol: as §1, §2, §3, §4, §5

in vitro = conditions: African green monkey

## COc1cc(NC(C(=O)N2CCc3ccc(OC(F)(F)F)cc32)c2ccc(F)cc2)cc(OCCCC(=O)O)c1 (racemic) (as salt: HCl) [Compound 2, 4-(3-((1-(4-fluorophenyl)-2-oxo-2-(6-(trifluoromethoxy)indolin-1-yl)ethyl)amino)-5-methoxyphenoxy)butanoic acid]
other
  melting point: 136 °C

## COc1cc(NC(C(=O)N2CCc3cc(OC)c(C(F)(F)F)cc32)c2ccc(Cl)cc2)cc(OCCCC(=O)O)c1 (racemic) (as salt: HCl) [Compound 5, 4-(3-((1-(4-chlorophenyl)-2-(5-methoxy-6-(trifluoromethyl)indolin-1-yl)-2-oxoethyl)amino)-5-methoxyphenoxy)butanoic Acid]
other
  melting point: 130 °C

## COc1cc(NC(C(=O)N2CCc3ccc(C(F)(F)F)cc32)c2ccc(Cl)cc2OC)cc(OCCCC(=O)O)c1 (racemic) (as salt: HCl) [Compound 6, 4-(3-((1-(4-chloro-2-methoxyphenyl)-2-oxo-2-(6-(trifluoro-methyl)indolin-1-yl)ethyl)amino)-5-methoxyphenoxy)butanoic acid]
other
  melting point: 178 °C

## COc1cc(NC(C(=O)N2CCc3cc(OC)c(C(F)(F)F)cc32)c2ccc(Cl)cc2OC)cc(OCCCC(=O)O)c1 (racemic) (as salt: HCl) [Compound 7, 4-(3-((1-(4-chloro-2-methoxyphenyl)-2-(5-methoxy-6-(trifluoromethyl)indolin-1-yl)-2-oxoethyl)amino)-5-methoxyphenoxy)butanoic acid]
other
  melting point: 160 °C

## COc1cc(NC(C(=O)N2CCc3ccc(OC(F)(F)F)cc32)c2ccc(Cl)cc2OC)cc(OCCCC(=O)O)c1 (racemic) (as salt: HCl) [Compound 8, 4-(3-((1-(4-chloro-2-methoxyphenyl)-2-oxo-2-(6-(trifluoro-methoxy)indolin-1-yl)ethyl)amino)-5-methoxyphenoxy)butanoic acid]
other
  melting point: 139 °C

## COc1cc(NC(C(=O)N2CCc3ccc(C(F)(F)F)cc32)c2ccc(F)cc2)cc(OCCCC(=O)O)c1 (single isomer, unassigned) [Compound 1B]
DENV-2 strain 16681
  EC50: 0.48 nM
DENV-4 strain H241
  EC50: 51 nM
DENV-3 strain H87
  EC50: 3.4 nM
Vero cells
  CC50: 20000 nM
DENV-2 16681 strain
  EC50: 0.84 nM
DENV-1 strain TC974#666
  EC50: 0.28 nM

## COc1cc(NC(C(=O)N2CCc3ccc(OC(F)(F)F)cc32)c2ccc(F)cc2)cc(OCCCC(=O)O)c1 (single isomer, unassigned) [Compound 2B]
DENV-2 strain 16681
  EC50: 0.28 nM
DENV-4 strain H241
  EC50: 30 nM
DENV-3 strain H87
  EC50: 4.6 nM
Vero cells
  CC50: 20000 nM
DENV-2 16681 strain
  EC50: 0.24 nM
DENV-1 strain TC974#666
  EC50: 0.3 nM

## COc1cc(NC(C(=O)N2CCc3ccc(C(F)(F)F)cc32)c2ccc(Cl)cc2)cc(OCCCC(=O)O)c1 (single isomer, unassigned) [Compound 3B]
DENV-2 strain 16681
  EC50: 0.12 nM
DENV-4 strain H241
  EC50: 14 nM
DENV-3 strain H87
  EC50: 1.1 nM
Vero cells
  CC50: 13000 nM
DENV-2 16681 strain
  EC50: 0.14 nM
DENV-1 strain TC974#666
  EC50: 0.18 nM

## COc1cc(NC(C(=O)N2CCc3ccc(OC(F)(F)F)cc32)c2ccc(Cl)cc2)cc(OCCCC(=O)O)c1 (single isomer, unassigned) [Compound 4B]
DENV-2 strain 16681
  EC50: 0.06 nM
DENV-4 strain H241
  EC50: 11 nM
DENV-3 strain H87
  EC50: 0.66 nM
Vero cells
  CC50: 13000 nM
DENV-2 16681 strain
  EC50: 0.12 nM
DENV-1 strain TC974#666
  EC50: 0.048 nM

## COc1cc(NC(C(=O)N2CCc3cc(OC)c(C(F)(F)F)cc32)c2ccc(Cl)cc2)cc(OCCCC(=O)O)c1 (single isomer, unassigned) [Compound 5B]
DENV-2 strain 16681
  EC50: 0.17 nM
DENV-4 strain H241
  EC50: 24 nM
DENV-3 strain H87
  EC50: 4.6 nM
Vero cells
  CC50: 13000 nM
DENV-2 16681 strain
  EC50: 0.18 nM
DENV-1 strain TC974#666
  EC50: 0.74 nM

## COc1cc(NC(C(=O)N2CCc3cc(OC)c(C(F)(F)F)cc32)c2ccc(Cl)cc2OC)cc(OCCCC(=O)O)c1 (single isomer, unassigned) [Compound 7B]
DENV-2 strain 16681
  EC50: 0.28 nM
DENV-4 strain H241
  EC50: 25 nM
DENV-3 strain H87
  EC50: 5.8 nM
Vero cells
  CC50: 13000 nM
DENV-2 16681 strain
  EC50: 0.17 nM
DENV-1 strain TC974#666
  EC50: 0.61 nM

## COc1cc(NC(C(=O)N2CCc3ccc(OC(F)(F)F)cc32)c2ccc(Cl)cc2OC)cc(OCCCC(=O)O)c1 (single isomer, unassigned) [Compound 8B]
DENV-2 strain 16681
  EC50: 0.062 nM
DENV-4 strain H241
  EC50: 12 nM
DENV-3 strain H87
  EC50: 1 nM
Vero cells
  CC50: 14000 nM
DENV-2 16681 strain
  EC50: 0.066 nM
DENV-1 strain TC974#666
  EC50: 0.15 nM

## COc1cc(NC(C(=O)N2CCc3ccc(C(F)(F)F)cc32)c2ccc(Cl)cc2F)cc(OCCCC(=O)O)c1 (single isomer, unassigned) [Compound 9B]
DENV-2 strain 16681
  EC50: 0.3 nM
DENV-4 strain H241
  EC50: 31 nM
DENV-3 strain H87
  EC50: 4.1 nM
Vero cells
  CC50: 13000 nM
DENV-2 16681 strain
  EC50: 0.4 nM
DENV-1 strain TC974#666
  EC50: 0.22 nM

## COc1cc(NC(C(=O)N2CCc3ccc(OC(F)(F)F)cc32)c2ccc(Cl)cc2F)cc(OCCCC(=O)O)c1 (single isomer, unassigned) [Compound 10A]
DENV-2 strain 16681
  EC50: 0.2 nM
DENV-4 strain H241
  EC50: 10 nM
DENV-3 strain H87
  EC50: 2.1 nM
In vitro
  CC50: 13000 nM
DENV-2 16681 strain
  EC50: 0.19 nM
DENV-1 strain TC974#666
  EC50: 0.16 nM

## COc1cc(NC(C(=O)N2CCc3cc(OC)c(C(F)(F)F)cc32)c2ccc(Cl)cc2F)cc(OCCCC(=O)O)c1 (single isomer, unassigned) [Compound 11B]
DENV-2 strain 16681
  EC50: 0.17 nM
DENV-4 strain H241
  EC50: 22 nM
DENV-3 strain H87
  EC50: 5.4 nM
Vero cells
  CC50: 12000 nM
DENV-2 16681 strain
  EC50: 0.15 nM
DENV-1 strain TC974#666
  EC50: 0.67 nM

## COc1cc(NC(C(=O)N2CCc3cc(OC)c(OC(F)(F)F)cc32)c2ccc(Cl)cc2)cc(OCCCC(=O)O)c1 (single isomer, unassigned) [Compound 12B]
DENV-2 strain 16681
  EC50: 0.22 nM
DENV-4 strain H241
  EC50: 28 nM
DENV-3 strain H87
  EC50: 4.1 nM
Vero cells
  CC50: 12000 nM
DENV-2 16681 strain
  EC50: 0.35 nM
DENV-1 strain TC974#666
  EC50: 0.68 nM
